From patent publication US20260001872A1, “BENZISOTHIAZOLE COMPOUND AND APPLICATION THEREOF, AND PHARMACEUTICAL COMPOSITION AND APPLICATION THEREOF” (Picomole Therapeutics (Liaoning) Co., Ltd., priority 2022, published 2026)
Where “and” joins values, the source holds several entries; their conditions need not be identical. Identical values can stand only once. Counter-ions that a name gives are not always drawn.

Tests used:
[1] = system: premature ejaculation model in Wistar rats after PCA induction; experiment: premature ejaculation model in Wistar rats after PCA induction; type: in vivo; details: for Actual ejaculation number / First contractive latency / First ejaculation latency / Seminal vesicle basal pressure (mmHg) / Seminal vesicle peak pressure (mmHg) / The number of seminal vesicle contractions: individual rats, within 30 min after PCA induction
Experimental: Male Wistar rats with body weight of about 300 g were subjected to a one-week acclimation period before the experiment began. On the day of the experiment, the animals were anesthetized with intraperitoneal (i.p.) injection of Zoletil 50 at 20 mg/kg combined with xylazine at 8 mg/kg, and then subjected to body temperature maintenance at 37° C. using a thermostatically controlled heating pad. The common carotid artery was exposed and cannulated with a PE50 catheter for real-time monitoring of arterial pressure (systolic blood pressure, diastolic blood pressure, and mean arterial pressure). The seminal vesicle and corpus cavernosum muscle of the animals were exposed. Seminal vesicle pressure and corpus cavernosum electromyographic (EMG) stabilized baseline were recorded for 10 min. In the dapoxetine group, the medications were administrated via tail vein intravenous (i.v.) injection; in the to-be-tested compound group, the to-be-tested compound was administrated orally (in the PE model group, the to-be-tested compound was substituted with vehicles); after 1 min, PCA (5 mg/kg) was intraperitoneally (i.p.) injected to induce the PE model; and recording of seminal vesicle pressure profiles and electromyographic (EMG) activity variations in the bulbocavernosus muscle continued to be performed for 30 min.
• A. The actual ejaculation number and the first ejaculation latency in animals within 30 min • B. The number of seminal vesicle contractions, the first contractive latency, basal pressure, and peak pressure within 30 min
The experimental data was represented by mean±S.E.M. and statistically analyzed by GraphPad Prism 7.0 software. One-way analysis of variance (One-way ANOVA) was used for comparison among multiple groups, and Dunnett't-test was used for statistical analysis in Post hoc test; and the comparison between two groups was statistically analyzed using Student's t-test. P<0.05 indicates a significant difference.

[2] = in vivo; cited from earlier work
[3] = 0.125 mg/kg p.o. + PCA 5 mg/kg i.p.
[4] = 0.5 mg/kg p.o. + PCA 5 mg/kg i.p.
[5] = 2 mg/kg p.o. + PCA 5 mg/kg i.p.
[6] = 2 mg/kg p.o. + PCA 5 mg/kg i.p., listed as A002
[7] = Dapoxetine 2 mg/kg i.v. + PCA 5 mg/kg i.p., hydrochloride
[8] = statistical analysis, PCA-induced model

c1ccc2nn(CCCCN3CCN(c4nsc5ccccc45)CC3)nc2c1 [A001]
Actual ejaculation number [1, 3]: 2 (2×) and 6 (2×) and 1 | First contractive latency [1, 3]: 1278 s and 824 s and 889 s and 1207 s and 1558 s | First ejaculation latency [1, 3]: 1456 s and 916 s and 985 s and 1380 s and 1667 s | Seminal vesicle basal pressure (mmHg) [1, 3]: 5.79 mmHg and 6.18 mmHg and 6.05 mmHg and 4.78 mmHg and 3.89 mmHg | Seminal vesicle peak pressure (mmHg) [1, 3]: 13.46 mmHg and 16.77 mmHg and 20.06 mmHg and 11.05 mmHg and 9.81 mmHg | The number of seminal vesicle contractions [1, 3]: 5 and 9 and 8 and 4 and 3 | Actual ejaculation number [1, 4]: 2 (3×) and 0 (2×) | First contractive latency [1, 4]: 1186 s and 1298 s and 1317 s and 1800 s (2×) | First ejaculation latency [1, 4]: 1256 s and 1382 s and 1477 s and 1800 s (2×) | Seminal vesicle basal pressure (mmHg) [1, 4]: 5.76 mmHg and 5.88 mmHg and 5.79 mmHg and 3.67 mmHg and 3.87 mmHg | Seminal vesicle peak pressure (mmHg) [1, 4]: 11.87 mmHg and 10.66 mmHg and 9.08 mmHg and 4.86 mmHg and 5.23 mmHg | The number of seminal vesicle contractions [1, 4]: 3 and 4 (2×) and 0 (2×) | Actual ejaculation number [1, 5]: 0 | First ejaculation latency [1, 5]: 1800 s | First contractive latency [1, 6]: 1568 s and 1800 s (4×) | Seminal vesicle basal pressure (mmHg) [1, 6]: 4.05 mmHg and 4.17 mmHg and 4.86 mmHg and 4.18 mmHg and 3.88 mmHg | Seminal vesicle peak pressure (mmHg) [1, 6]: 9.67 mmHg and 6.04 mmHg and 5.18 mmHg and 4.98 mmHg and 5.05 mmHg | The number of seminal vesicle contractions [1, 6]: 2 and 0 (4×)

CN(C)[C@@H](CCOc1cccc2ccccc12)c1ccccc1 [Dapoxetine, Dapoxetine hydrochloride, reference compound]
bioavailability [2]: 42% | Actual ejaculation number [1, 7]: 1 (2×) and 0 (2×) and 2 | First contractive latency [1, 7]: 1448 s and 1705 s and 1800 s and 1749 s and 866 s | First ejaculation latency [1, 7]: 1558 s and 1800 s (2×) and 1256 s and 967 s | Seminal vesicle basal pressure (mmHg) [1, 7]: 5.16 mmHg and 4.97 mmHg and 5.37 mmHg and 5.88 mmHg and 4.96 mmHg | Seminal vesicle peak pressure (mmHg) [1, 7]: 6.89 mmHg and 8.1 mmHg and 6.46 mmHg and 6.78 mmHg and 7.03 mmHg | The number of seminal vesicle contractions [1, 7]: 1 (3×) and 0 and 3 | initial seminal vesicle contractive latency compared with the PE model group ([1]; P<0.01, P<0.001, FIG. 4): significant increase | contraction number of the corpus cavernosum muscle (conclusion) [1, 8]: decrease | ejaculation latency (conclusion) [1, 8]: effectively prolong | ejaculation number (conclusion) [1, 8]: significantly decrease | seminal vesicle pressure (conclusion) [1, 8]: reduce
